Experiments:
Tryptophan--tRNA ligase = Tryptophan--tRNA ligase (Mycobacterium tuberculosis (strain ATCC 25618 / H37Rv), UniProt P9WFT3); experiment: Biochemical assay for Mt-TrpRS; type: functional
[1] = In vitro enzyme assay to detect hydrolysis of chlorophenol red-beta-D-[…] directly proportional to the number of Toxoplasma stably expressing beta-galactosidase; type: functional, organism-based, Toxoplasma gondii; conditions: for IC50: Toxoplasma gondii
ClpP1P2 = ClpP1P2 (Mycobacterium tuberculosis (strain ATCC 25618 / H37Rv), UniProt P9WPC3+P9WPC5); experiment: in vitro assay to detect presence of AMC directly proportional to the activity of ClpP1P2. GHDDI collaboration.; type: functional
ClpP1P2, sequence (P9WPC5 whole entry): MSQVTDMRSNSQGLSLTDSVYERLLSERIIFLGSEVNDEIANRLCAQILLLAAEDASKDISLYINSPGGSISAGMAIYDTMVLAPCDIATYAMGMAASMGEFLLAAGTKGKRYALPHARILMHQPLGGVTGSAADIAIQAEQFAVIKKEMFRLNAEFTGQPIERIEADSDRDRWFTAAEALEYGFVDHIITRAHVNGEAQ
ClpP1P2, sequence (P9WPC3 whole entry): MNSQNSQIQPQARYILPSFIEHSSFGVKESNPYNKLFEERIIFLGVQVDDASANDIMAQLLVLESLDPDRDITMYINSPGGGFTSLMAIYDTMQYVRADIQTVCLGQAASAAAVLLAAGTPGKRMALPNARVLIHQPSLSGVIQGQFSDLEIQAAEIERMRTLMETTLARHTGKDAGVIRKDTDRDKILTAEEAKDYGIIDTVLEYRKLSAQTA

Schistosoma mansoni = experiment: High throughput screening of compounds against Schistosoma mansoni motility; type: functional; parameters: dose or concentration left out as unconfirmed
Plasmodium falciparum = experiment: Calibr Malaria Delayed Death Assay SOP; type: functional, organism-based; conditions: for IC50: Plasmodium falciparum
[2] = microbe, parasite or virus in culture; conditions: Mycobacterium tuberculosis, 96 h, read-out: pIC50 (converted)
[3] = microbe, parasite or virus in culture; conditions: Mycobacterium tuberculosis, 72 h, read-out: pIC50 (converted)

Tryptophan--tRNA ligase, sequence (P9WFT3 whole entry): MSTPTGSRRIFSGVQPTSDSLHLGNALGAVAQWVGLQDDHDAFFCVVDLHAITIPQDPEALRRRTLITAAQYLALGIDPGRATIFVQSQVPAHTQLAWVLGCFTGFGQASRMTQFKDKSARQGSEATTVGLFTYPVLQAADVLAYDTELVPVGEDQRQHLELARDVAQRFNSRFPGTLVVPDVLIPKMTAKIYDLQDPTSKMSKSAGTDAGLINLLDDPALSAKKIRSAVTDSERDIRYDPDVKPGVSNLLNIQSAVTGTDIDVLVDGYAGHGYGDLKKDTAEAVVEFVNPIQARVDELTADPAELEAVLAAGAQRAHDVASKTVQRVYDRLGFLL

Row | Compound | IC50 (Tryptophan--tRNA ligase) [µM] | also measured
1 | CSCC(C)(O)CNc1ncccc1I (stereo not given) | > 195 | –
2 | CN(C)C(=O)CN1CCO[C@H]2CN(Cc3ccoc3)C[C@H]21 | > 195 | –
3 | Fc1ccccc1OCCc1cc(C2CNCCO2)n[nH]1 (stereo not given) | > 195 | –
4 | CCS(=O)(=O)NCCCNCc1c(C)nn(C)c1N(C)C | > 195 | –
5 | NC(=O)CN1CCC(c2cccc(Oc3ccccc3)n2)CC1 | > 195 | –
6 | CN1CCC(Cc2cc(Nc3ccccn3)ncn2)CC1 | > 195 | –
7 | COc1cccc(CN2CC[C@H](NC(C)=O)[C@@H](O)CC2)c1F | > 195 | –
8 | Cc1cc(NC(=O)CN2CCc3cncnc3C2)no1 | > 195 | –
9 | CC(C)(C)OC(=O)N1CC(=O)N(CCc2ccccc2)CC(O)C1 (stereo not given) | > 195 | –
10 | Nc1nccc(C2CCN(CC3CC3)C2)n1 (stereo not given) | > 195 | –
11 | Cn1cccc1CNC(=O)CCCc1nnc2ccccn12 | > 195 | –
12 | COCCC(=O)N1CCC2(COCc3cnc(-c4cccnc4)nc32)C1 (stereo not given) | > 195 | –
13 | CCCC(=O)N1CCCC(c2ccccn2)C1 (stereo not given) | > 195 | –
14 | COc1cccc(-c2ccnc(C3CCNCC3)c2)c1 | > 195 | –
15 | CCC(=O)N1CCC2(C=C(C(=O)N3CCCC3)c3ccccc32)CC1 | > 195 | –
16 | CCc1nnc(CN2CCCCC2Cn2cncn2)o1 (stereo not given) | > 195 | –
17 | Cn1nccc1C(=O)N1CCCC1c1[nH]ncc1C(N)=O (stereo not given) | > 195 | –
18 | CNc1cc(C2CCCN2Cc2ccc(OCC(=O)O)cc2)ccn1 (stereo not given) | > 195 | –
19 | CN1CCCN(C(=O)c2ccnn2-c2ccc3ccccn23)CC1 | > 195 | –
20 | CNc1oc(-c2ccc(S(=O)(=O)N(C)C)o2)nc1C#N | – | IC50 [1]: > 50.1 µM; IC50 (ClpP1P2): > 100 µM
21 | CN(C)CCO[C@H]1CN(CC2CC2)[C@@H]2CCCO[C@H]12 | > 195 | –
22 | CC(C(=O)NCc1ccc(N2CCCC2)nc1)S(C)(=O)=O (stereo not given) | > 195 | –

Row | Compound | IC50 (Tryptophan--tRNA ligase) [µM] | also measured
23 | COCC1CC2(CCN(C(=O)c3ccc(F)c(Cl)c3)CC2)CO1 (stereo not given) | > 195 | –
24 | Cc1cnc(CC2COCCN(Cc3nccn3C)C2)cn1 (stereo not given) | > 195 | –
25 | CC(=O)N1CCCC(c2cccc(-n3ccnc3)n2)C1 (stereo not given) | > 195 | –
26 | Cc1cc(N)cc(C2CN(Cc3cc[nH]n3)CCO2)n1 (stereo not given) | > 195 | –
27 | O=C(C1CC1)N1CCN2C[C@@H](CO)[C@H](c3ccccc3)[C@H]2C1 | > 195 | –
28 | CNc1cccc(C2CCCN(C(=O)c3cccnc3)C2)n1 (stereo not given) | > 195 | –
29 | CCOCCN1CCC(C(=O)c2cc(F)ccc2F)CC1 | > 195 | –
30 | O=C(NCCCn1ccnc1)c1cccnc1OCC(F)(F)F | > 195 | –
31 | COc1ccc2c(c1)CN(Cc1ccco1)C(=O)CCN2 | > 195 | –
32 | CC(=O)N1N=C(c2ccccc2)OC1C(=O)NCCc1cccc(F)c1 (stereo not given) | > 195 | –
33 | COc1cc(NC2CCCNC2)cc(OC)c1 (stereo not given) | > 195 | –
34 | CC(C)CN1C[C@H](COCc2ccccc2)Oc2ncccc2C1=O | > 195 | –
35 | Cc1cc(-c2cnn(CCNC(=O)Cc3ccccn3)c2C2CC2)on1 | > 195 | –
36 | Nc1nccnc1C1CN(Cc2ccc(OCC(=O)O)cc2)CCO1 (stereo not given) | > 195 | –
37 | NC(=O)C1(CCCc2ccccn2)CCCN(Cc2ncc[nH]2)C1 (stereo not given) | > 195 | –
38 | NC(=O)CN1CCCC(Cc2ccc(N3CCOCC3)nn2)C1 (stereo not given) | > 195 | –
39 | CCCC1CN(CCOc2ccccc2)C(=O)c2cccnc2O1 (stereo not given) | > 195 | –
40 | Cc1cnn(CC2CCCN2Cc2nc(N)c3ccccc3n2)c1 (stereo not given) | > 195 | –
41 | NC(=O)CN1CCOCC(Cc2ccccc2Cl)C1 (stereo not given) | > 195 | –
42 | Nc1nccc(C2CCN(CCO)C2)n1 (stereo not given) | > 195 | –
43 | CC(C)CC(=O)N1CC(=O)N(CCc2ccccc2)CC(O)C1 (stereo not given) | > 195 | –
44 | Cc1ccc(CN2CCO[C@H]3[C@H](OCc4cccnc4)CC[C@@H]32)o1 | > 195 | –

Row | Compound | IC50 (Tryptophan--tRNA ligase) [µM] | also measured
45 | Oc1cc(CC2COCCN(CC3(O)CCOCC3)C2)ncn1 (stereo not given) | > 195 | –
46 | CC(C)(Oc1ccc(C(N)=O)cc1)C(=O)N(CCC#N)CC1CCCO1 (stereo not given) | > 195 | –
47 | COCCC(=O)NCCn1nc(C2CCNC2)c2cccnc21 (stereo not given) | > 195 | –
48 | COCC(=O)N1CCC(C(=O)c2cc(C)cnc2N)CC1 | > 195 | –
49 | c1ccc(OCC2C[C@@H]3[C@@H](C2)OCCN3Cc2ccoc2)nc1 (stereo not given in full) | > 195 | –
50 | Cc1nccc(N2CCCC2CCNS(C)(=O)=O)n1 (stereo not given) | > 195 | –
51 | COc1ccc([C@@H]2CN(C(=O)CCn3cccn3)C[C@H]2NC(C)=O)cc1 | > 195 | –
52 | Cc1noc(C2(C)CCCN(C(=O)c3cccnc3)C2)n1 (stereo not given) | > 195 | –
53 | CC(=O)N1CCC(C(=O)N2CCC2c2nc(-c3ccc(C)s3)no2)CC1 (stereo not given) | > 195 | –
54 | CN(CCc1ccccn1)C(=O)Nc1cc(C(F)(F)F)c[nH]c1=O | > 195 | –
55 | Cc1cccnc1C(=O)N1CCC(Cc2cnc3[nH]ccc3c2)CC1 | > 195 | –
56 | COCCN1CCC12CCN(C(=O)c1ccc(C)nc1)C2 (stereo not given) | > 195 | –
57 | COc1ccc(-c2cc(C3CCCNC3)ccn2)cc1 (stereo not given) | > 195 | –
58 | CN(C)C(CNCc1nc(-c2ccsc2)no1)c1ccsc1 (stereo not given) | > 195 | –
59 | COCCn1cnnc1C1CCCN(C(C)C)C1 (stereo not given) | > 195 | –
60 | Fc1ccc(Cc2cnc(C3CCCN3)cn2)cc1 (stereo not given) | > 195 | –
61 | COc1cc(N(C)CCC(O)c2ccccc2)ncn1 (stereo not given) | > 195 | –
62 | O=S(=O)(NCC1(O)CCOc2ccccc21)c1ccc(Br)s1 (stereo not given) | – | IC50 [1]: 7.49 µM; Percent Effect (Schistosoma mansoni): -11.19%
63 | Cc1cc(CN2CC[C@@H]3O[C@@H](c4nnc(C)o4)C[C@H]3C2)no1 | > 195 | –
64 | O=C(NCC1=CCCCC1)C(c1cccnc1)N1CCCC1 (stereo not given) | > 195 | –
65 | COc1ccc(C(=O)Nc2cccc(SC)c2)c(OC)n1 | > 195 | –
66 | Cc1noc([C@@H]2C[C@H]3CN(CC4CCOCC4)C[C@H]3O2)n1 | > 195 | –

Row | Compound | IC50 (Tryptophan--tRNA ligase) [µM] | also measured
67 | NC(=O)Nc1cc(F)ccc1SCC(F)F | > 195 | –
68 | Cc1ccn(-c2ccc(N3CCCN(Cc4ccccc4)CC3)nn2)n1 | > 195 | –
69 | c1cn(-c2cncc(C3CCNCC3)n2)cn1 | > 195 | –
70 | COCCN1CC(C(=O)N(C)Cc2ccc(Cl)s2)CC1=O (stereo not given) | > 195 | –
71 | Cc1c[nH]nc1C1CCN(C(=O)C2CCC2)CC1 | > 195 | –
72 | O=C(O)C1(Cc2cc(-c3ccccc3F)no2)CCOCC1 | > 195 | –
73 | O=C(c1cc2c(s1)CCCC2)N1CCc2nc(C3CCCN3)ncc2C1 (stereo not given) | > 195 | –
74 | CC(=O)c1ccc(OCC(C)O)cc1O (stereo not given) | > 195 | –
75 | CC(=O)N1CCCC1c1cccc(Cc2ccccc2Cl)n1 (stereo not given) | > 195 | –
76 | O=C(NCC1CC2(CO1)CN(c1ncccn1)C2)C1CCC1 (stereo not given) | > 195 | –
77 | Cc1cc(C(F)(F)F)nn1CCCNC(=O)C1CCCO1 (stereo not given) | > 195 | –
78 | O=C(c1ccccn1)N1CCC(c2nc(O)cc(-c3ccncc3)n2)C1 (stereo not given) | > 195 | –
79 | CC(C)Nc1cc(-c2c[nH]nc2C2CCN(C(=O)C3CCC3)C2)ccn1 (stereo not given) | – | IC50 [1]: 0.526 µM; pIC50 (Plasmodium falciparum): 6.647; IC50 (Plasmodium falciparum): 0.209 µM
80 | CC(C)Nc1cc(-c2c[nH]nc2C2CCN(C(=O)C3CC3)C2)ccn1 (stereo not given) | – | IC50 [1]: 0.423 µM; pIC50 (Plasmodium falciparum): 6.541; IC50 (Plasmodium falciparum): 0.269 µM
81 | CCNCc1ccc(OCc2ccc3c(c2)OCCO3)cc1.Cl | – | pIC50 [1]: 4.872; IC50 [1]: 8.2 µM; IC50 (ClpP1P2): > 100 µM
82 | Cc1cc(C2CCCN(CC(=O)Nc3nc4c(s3)CCC4)C2)n[nH]1 (stereo not given) | – | IC50 [1]: 0.781 µM; pIC50 (Plasmodium falciparum): 6.771; IC50 (Plasmodium falciparum): 0.185 µM; IC50 [2]: 47.2 µM; IC50 [3]: 37.8 µM
83 | CCCn1ncc(-c2ccnc(NC3CC(C)(C)NC(C)(C)C3)n2)c1C | – | IC50 [1]: 9.87 µM; pIC50 (Plasmodium falciparum): 6.559; IC50 (Plasmodium falciparum): 0.23 µM
84 | COc1ccc(-c2ccccc2CCN)c(OC)c1OC | – | IC50 [1]: 3.52 µM; pIC50 (Plasmodium falciparum): 6.053; IC50 (Plasmodium falciparum): 0.762 µM; IC50 [2]: 25.1 µM; IC50 [3]: 43.4 µM
85 | CC(C)(C)c1cn2c(n1)C(CNCc1ccccn1)CCC2 (stereo not given) | – | IC50 [1]: 2.04 µM; pIC50 (Plasmodium falciparum): 6.014; IC50 (Plasmodium falciparum): 0.881 µM

Reference: ChEMBL document CHEMBL3988442, “University of Dundee, Small-Polar-MMV Screening Library” (2021)
